Source: patent US9226912B2, “Acetyltanshinone IIA (ATA) as anticancer agent” (Nanyang Technological University, priority 2011, dated 2016)

What was measured:
[1] = molecular target: T1, ERα in BT474 cells (Homo sapiens, UniProt P03372); test: ERα protein level by Western blotting; assay type: cell-based; details: 6 μM ATA or 1 μM fulvestrant
T1 construct: endogenous in cells; host or cells: BT474 human breast cancer cells
Experimental: Cells were treated with 6 μM ATA or 1 μM fulvestrant for indicated times and analyzed by Western blotting.

[2] = system: Bax and cytochrome c in MDA-MB-435 cells; test: Bax translocation and cytochrome c release, cell fractionation Western blot and immunofluorescence; assay type: cell-based, human; details: 20 μM PG, 5 μM ATA, 24 h
Experimental: The concentration of ATA and PG were 5 μM and 20 μM, respectively. […] Scale bar=10 μm.
The value of CY/MT represents the ratio of integrated band intensity of cytosol fraction (CY) over corresponding integrated band intensity of mitochondrial fraction (MT). The ratio was normalized by the control group. Two proteins were used as internal markers to judge the quality of cell fractionation experiment: Cox IV for mitochondria and β-tubulin mainly for cytosol.
The subcellular localization changes of Bax and cytochrome c during ATA-induced apoptosis were first examined using immunofluorescence staining.
(§1) It was further tested, whether PG could prevent ROS generation after ATA treatment.

[3] = system: ROS in MDA-MB-435 cells; test: ROS generation and its prevention by PG; assay type: cell-based, human; details: pre-treating cells with 20 μM PG
Experimental: (A) PG prevented ATA-induced cell death. Three concentrations of PG were tested for their protective effects on ATA-induced cell death. The cell viability was measured by SRB assay. (* p<0.01). (B) PG protected ROS generation caused by ATA treatment. […] All the experiments were performed at least three times. The results presented in this figure are the average of three experiments. Error bar represents standard deviation. Scale bar=20 μm.
as §1

[4] = system: MCF-7/HER2 cells; test: Growth inhibition of HER2 over-expressing cells at 72 h; assay type: cell-based; details: paclitaxel 1×10^−3 μM to 10 μM; ATA 0.78 μM to 6.25 μM
Source text: The efficacy of ATA on MCF-7 cells with over-expressed HER2 protein was investigated.

[5] = system: MCF-7 cells; test: Combinatorial effect of ATA with paclitaxel, MTT assay; assay type: cell-based; details: Homo sapiens, MCF7, paclitaxel alone at 1 nM, read-out: cell growth inhibition rate
Experimental: The effect was determined by measuring the rates of cell growth inhibition using MTT assay. (* p<0.01, compared with cells treated with either paclitaxel alone or ATA alone).
The inventors of the present invention have shown for the first time that ATA can increase the cytotoxic effect of paclitaxel. In the tests (FIG. 16) with five concentrations of ATA at 10, 5, 2.5, 1.25, 0.625 μM and five concentrations of paclitaxel at 1000, 100, 10, 1, 0.1 nM were used.

[6] = system: ESR1 mRNA in MCF-7 cells; test: Real-time PCR of ESR1 mRNA level; details: 100 pM estrogen plus 6 μM compound, 24 h
Experimental: MCF-7 cells cultured in the charcoal-stripped medium were used as control for the 0 h sample.

[7] = system: GREB1 mRNA in MCF-7 cells; test: Real-time PCR of GREB1 mRNA level; details: 100 pM estrogen plus 6 μM compound, 24 h, normal medium
Experimental: In order to do so, the mRNA level of a non-ER regulated gene GAPDH was measured and used as a reference. MCF-7 cells cultured in the charcoal-stripped medium were used as a control.

[8] = system: HeLa cells; test: ATA-induced cell death by cell counting under a microscope; assay type: cell-based; details: 2 μM z-VAD-fmk pre-treatment 2 h, then 10 or 20 μM ATA, 24 h and 48 h
Experimental: HeLa cells were treated with 10 μM ATA for 12, 24, 36, and 48 h. The β-tubulin protein was probed as a loading control. […] HeLa cells were pre-treated with 2 μM pan-caspase inhibitor (z-VAD-fmk) for 2 h before ATA addition. Then 10 μM or 20 μM ATA were added. After 24 h and 48 h treatment, the number of died cells was counted under a microscope. (* p<0.01, compared with cells treated with ATA only). Control: cells without any treatment.
Overexpression of Bcl-2 inhibited ATA-induced cell death. HeLa cells transfected with either yellow fluorescent protein (YFP) (vector control) or YFP-Bcl-2 (Bcl-2) were treated with ATA at 10 or 20 μM. The percentage of cell death from YFP-positive cells was determined by cell counting under a fluorescence microscope. (* p<0.01, compared with vector control groups).
The inventors of the present invention have shown for the first time that ATA can activate the apoptotic pathway in cancer cells. […]
HeLa cells transfected with YFP-Bcl-2 or YFP only were treated with 10 μM or 20 μM ATA. After 24 h or 48 h treatment, the percentage of cell death in each sample was calculated by counting the numbers of fluorescence-positive cells either live (attached with a normal cell morphology) or dead (detached with a shrunk morphology) under a fluorescence microscope. […]

T1 sequence (P03372 whole entry): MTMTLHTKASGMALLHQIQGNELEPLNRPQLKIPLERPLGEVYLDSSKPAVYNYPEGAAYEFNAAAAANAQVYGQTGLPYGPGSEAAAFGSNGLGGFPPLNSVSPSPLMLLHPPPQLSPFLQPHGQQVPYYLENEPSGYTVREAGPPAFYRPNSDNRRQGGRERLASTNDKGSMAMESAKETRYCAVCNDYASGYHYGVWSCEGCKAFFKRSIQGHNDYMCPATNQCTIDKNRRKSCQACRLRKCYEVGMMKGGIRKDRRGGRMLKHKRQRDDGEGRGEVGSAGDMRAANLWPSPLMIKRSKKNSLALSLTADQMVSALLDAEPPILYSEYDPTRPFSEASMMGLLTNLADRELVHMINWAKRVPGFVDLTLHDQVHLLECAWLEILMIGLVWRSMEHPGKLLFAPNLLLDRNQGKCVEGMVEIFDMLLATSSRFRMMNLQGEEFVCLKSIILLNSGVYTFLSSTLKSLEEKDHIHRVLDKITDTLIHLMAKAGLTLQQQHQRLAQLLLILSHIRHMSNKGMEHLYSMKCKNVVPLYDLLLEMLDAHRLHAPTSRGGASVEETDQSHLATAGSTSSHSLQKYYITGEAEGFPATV

Compound: C[C@]12CC[C@@H]3c4ccc(O)cc4C[C@@H](CCCCCCCCC[S+]([O-])CCCC(F)(F)C(F)(F)F)[C@H]3[C@@H]1CC[C@@H]2O (stereo partly drawn) [Fulvestrant, fulvestrant, reference compound]
- level of ERα [1]: only reduced ERα

Compound: CCCOC(=O)c1cc(O)c(O)c(O)c1 [PG, propyl gallate, reference compound]
- effect on Bax translocation and cytochrome c release in ATA-treated cells [2]: could effectively prevent
- effect on ATA-induced ROS level increase [3]: completely prevented

Compound: CC(=O)O[C@H]1C(=O)[C@@]2(C)[C@H]([C@H](OC(=O)c3ccccc3)[C@]3(O)C[C@H](OC(=O)[C@H](O)[C@@H](NC(=O)c4ccccc4)c4ccccc4)C(C)=C1C3(C)C)[C@]1(OC(C)=O)CO[C@@H]1C[C@@H]2O [paclitaxel, reference compound]
- sensitivity of MCF-7/HER2 cells compared with MCF-7 cells [4]: more resistance to paclitaxel than MCF-7 cells
- inhibition at 0.001 µM [5]: ~40%

Compound: CC/C(=C(\c1ccccc1)c1ccc(OCCN(C)C)cc1)c1ccccc1 [tamoxifen, reference compound]
- level of ESR1 mRNA over control ([6]; charcoal-stripped medium): about 70%
- level of ESR1 mRNA over control ([6]; normal medium): only slightly decreased
- GREB1 level of the control [7]: comparable

Compound: z-VAD-fmk [reference compound]
- effect on ATA-induced cell death [8]: could be inhibited
